Measurements taken from US8063071B2 (GlaxoSmithKline, LLC, priority 2007, dated 2011).
Where a name gives a salt, the structure may show the parent alone.

Assays:
[1] = system: human monocyte stimulated cytokine production (TNF-α); assay: Monocyte assay (LPS-stimulated TNF-α production); type: cell-based; details: for IC50: 24 h, 200 ng/mL LPS, TNF-α by ELISA; for inhibition at 0.3 µM: read-out: inhibition at 300 nM in the monocyte assay
Summary of the method: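 TNF-α release was measured by ELISA after 24 hrs at 37 C. Cells were stimulated with 200 ng/mL E. coli LPS, with compound added 30 minutes beforehand (0.1% DMSO vehicle). Cells were Ficoll/MACS-isolated CD14+ human monocytes adhered at 1×10^6 cells/mL, and viability was checked by trypan blue.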

[2] = target: T1, Recombinant human IKKβ (residues 1-737) (Homo sapiens, UniProt O14920); assay: IKK2 assay (TR-FRET); type: biochemical; details: ATP 1 μM final, read-out: pIC50 against IKK2 (converted)
T1 construct: Recombinant human IKKβ (residues 1-737); GST (C); made in house
T1 sequence (O14920 1-737): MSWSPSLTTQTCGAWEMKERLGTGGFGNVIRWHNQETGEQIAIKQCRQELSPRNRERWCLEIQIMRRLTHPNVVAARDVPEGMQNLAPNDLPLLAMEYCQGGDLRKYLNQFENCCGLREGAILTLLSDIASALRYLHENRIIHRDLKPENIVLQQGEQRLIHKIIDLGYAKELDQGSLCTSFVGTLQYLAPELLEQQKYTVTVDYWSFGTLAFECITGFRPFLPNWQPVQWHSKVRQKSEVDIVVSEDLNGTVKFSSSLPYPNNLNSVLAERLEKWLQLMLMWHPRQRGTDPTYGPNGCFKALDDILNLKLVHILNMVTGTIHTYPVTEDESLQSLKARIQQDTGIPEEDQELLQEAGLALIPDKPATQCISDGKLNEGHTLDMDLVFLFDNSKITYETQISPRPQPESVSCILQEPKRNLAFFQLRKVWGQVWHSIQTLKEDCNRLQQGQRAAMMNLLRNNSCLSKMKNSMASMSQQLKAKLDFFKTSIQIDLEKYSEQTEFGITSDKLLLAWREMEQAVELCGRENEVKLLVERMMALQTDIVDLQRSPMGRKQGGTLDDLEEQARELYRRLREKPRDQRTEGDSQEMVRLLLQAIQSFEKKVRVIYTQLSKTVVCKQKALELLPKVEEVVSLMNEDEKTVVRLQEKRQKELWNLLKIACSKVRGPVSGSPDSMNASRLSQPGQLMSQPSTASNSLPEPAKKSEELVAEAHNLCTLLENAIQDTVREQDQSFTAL
Summary of the method: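 TR-FRET readout (665 nm over 620 nm Eu reference) of GST-IB Ser32/36 phosphorylation after 60 min detection. Reaction: 1 μM ATP, 25 nM substrate, 0.5-5 nM GST-fused IKKβ 1-737 from baculovirus, pH 7.4 HEPES buffer, 1.7% DMSO, 15 min room temperature, EDTA-terminated.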

Row | SMILES | IC50 [1] | IC50 [2] | inhibition at 0.3 µM [1]
1 | CCS(=O)(=O)N1CCC(c2c[nH]c3c(C(N)=O)cc(-c4cc(CN5CCCC5)ccc4F)cc23)CC1 [Example 340, 3-[1-(ethylsulfonyl)-4-piperidinyl]-5-[2-fluoro-5-(1-pyrrolidinylmethyl)phenyl]-1H-indole-7-carboxamide trifluoroacetate] | > 1 µM | ≤ 10 µM | –
2 | CCS(=O)(=O)N1CCC(c2c[nH]c3c(C(N)=O)cc(-c4csc(CN(C)CCS(=O)(=O)c5ccccc5)c4)cc23)CC1 [Example 45, 3-[1-(ethylsulfonyl)-4-piperidinyl]-5-[5-({methyl[2-(phenylsulfonyl)ethyl]amino}methyl)-3-thienyl]-1H-indole-7-carboxamide trifluoroacetate] | – | ≤ 10 µM | 0 to 60%
3 | CCS(=O)(=O)N1CCC(c2c[nH]c3c(C(N)=O)cc(-c4ccc(N(C)C)cc4)cc23)CC1 [Example 165, 5-[4-(dimethylamino)phenyl]-3-[1-(ethylsulfonyl)-4-piperidinyl]-1H-indole-7-carboxamide] | > 1 µM | ≤ 10 µM | –
4 | CCS(=O)(=O)N1CCC(c2c[nH]c3c(C(N)=O)cc(-c4cccc(CNC(C)CO)c4)cc23)CC1 (stereo not shown) [Example 19, 3-[1-(ethylsulfonyl)-4-piperidinyl]-5-(3-{[(2-hydroxy-1-methylethyl)amino]methyl}phenyl)-1H-indole-7-carboxamide] | ≤ 1.5 µM | ≤ 10 µM | –
5 | CCS(=O)(=O)N1CCC(c2c[nH]c3c(C(N)=O)cc(-c4ccc(CNC(C)C)s4)cc23)CC1 [Example 169, 3-[1-(ethylsulfonyl)-4-piperidinyl]-5-(5-{[(1-methylethyl)amino]methyl}-2-thienyl)-1H-indole-7-carboxamide] | ≤ 1.5 µM | ≤ 10 µM | –
6 | CCS(=O)(=O)N1CCC(c2c[nH]c3c(C(N)=O)cc(-c4csc(C(C)N5CCCC5)c4)cc23)CC1 (stereo not shown) [Example 238, 3-[1-(ethylsulfonyl)-4-piperidinyl]-5-{5-[1-(1-pyrrolidinyl)ethyl]-3-thienyl}-1H-indole-7-carboxamide trifluoroacetate] | ≤ 1.5 µM | ≤ 10 µM | –
7 | CCS(=O)(=O)N1CCC(c2c[nH]c3c(C(N)=O)cc(-c4cc(CNCCCOC)cs4)cc23)CC1 [Example 214, 3-[1-(ethylsulfonyl)-4-piperidinyl]-5-[4-({[3-(methyloxy)propyl]amino}methyl)-2-thienyl]-1H-indole-7-carboxamide trifluoroacetate] | ≤ 1.5 µM | ≤ 10 µM | –
8 | CCS(=O)(=O)N1CCC(c2c[nH]c3c(C(N)=O)cc(-c4ccc(CN[C@@H](C)C(C)(C)C)s4)cc23)CC1 [Example 200, 3-[1-(ethylsulfonyl)-4-piperidinyl]-5-[5-({[(1S)-1,2,2-trimethylpropyl]amino}methyl)-2-thienyl]-1H-indole-7-carboxamide] | > 1 µM | ≤ 10 µM | –
9 | CC(C)S(=O)(=O)N1CCC(c2c[nH]c3c(C(N)=O)cc(-c4csc(CN(C)CCO)c4)cc23)CC1 [Example 397, 5-(5-{[(2-hydroxyethyl)(methyl)amino]methyl}-3-thienyl)-3-{1-[(1-methylethyl)sulfonyl]-4-piperidinyl}-1H-indole-7-carboxamide] | ≤ 1.5 µM | ≤ 10 µM | –
10 | CCS(=O)(=O)N1CCC(c2c[nH]c3c(C(N)=O)cc(-c4csc(CN5CCCC5c5ccccc5)c4)cc23)CC1 (stereo not shown) [Example 46, 3-[1-(ethylsulfonyl)-4-piperidinyl]-5-{5-[(2-phenyl-1-pyrrolidinyl)methyl]-3-thienyl}-1H-indole-7-carboxamide] | – | ≤ 10 µM | 0 to 60%
11 | CCS(=O)(=O)N1CCC(c2c[nH]c3c(C(N)=O)cc(-c4csc(CNC5CC5)c4)cc23)CC1 [Example 109, 5-{5-[(cyclopropylamino)methyl]-3-thienyl}-3-[1-(ethylsulfonyl)-4-piperidinyl]-1H-indole-7-carboxamide trifluoroacetate] | ≤ 1.5 µM | ≤ 10 µM | –
12 | CCS(=O)(=O)N1CCC(c2c[nH]c3c(C(N)=O)cc(-c4cccc(CNC[C@H]5CCCO5)c4)cc23)CC1 [Example 306, 3-[1-(ethylsulfonyl)-4-piperidinyl]-5-[3-({[(2R)-tetrahydro-2-furanylmethyl]amino}methyl)phenyl]-1H-indole-7-carboxamide trifluoroacetate] | ≤ 1.5 µM | ≤ 10 µM | –
13 | CCS(=O)(=O)N1CCC(c2c[nH]c3c(C(N)=O)cc(-c4ccnc(NCC(C)(C)C)c4)cc23)CC1 [Example 206, 5-{2-[(2,2-dimethylpropyl)amino]-4-pyridinyl}-3-[1-(ethylsulfonyl)-4-piperidinyl]-1H-indole-7-carboxamide trifluoroacetate] | > 1 µM | ≤ 10 µM | –
14 | CCS(=O)(=O)N1CCC(c2c[nH]c3c(C(N)=O)cc(-c4csc(CN[C@@H](C)C(C)C)c4)cc23)CC1 [Example 116, 5-[5-({[(1S)-1,2-dimethylpropyl]amino}methyl)-3-thienyl]-3-[1-(ethylsulfonyl)-4-piperidinyl]-1H-indole-7-carboxamide trifluoroacetate] | ≤ 1.5 µM | ≤ 10 µM | –
15 | CCS(=O)(=O)N1CCC(c2c[nH]c3c(C(N)=O)cc(-c4csc(CN(C)Cc5ccncn5)c4)cc23)CC1 [Example 85, 3-[1-(ethylsulfonyl)-4-piperidinyl]-5-(5-{[methyl(4-pyrimidinylmethyl)amino]methyl}-3-thienyl)-1H-indole-7-carboxamide trifluoroacetate] | – | ≤ 10 µM | 0 to 60%
16 | CCS(=O)(=O)N1CCC(c2c[nH]c3c(C(N)=O)cc(-c4ccc(CCNC(=O)C5CCCCC5)cc4)cc23)CC1 [Example 133, 5-(4-{2-[(cyclohexylcarbonyl)amino]ethyl}phenyl)-3-[1-(ethylsulfonyl)-4-piperidinyl]-1H-indole-7-carboxamide] | > 1 µM | ≤ 10 µM | –
17 | CCCC(C)NCc1cccc(-c2cc(C(N)=O)c3[nH]cc(C4CCN(S(=O)(=O)CC)CC4)c3c2)c1 (stereo not shown) [Example 154, 3-[1-(ethylsulfonyl)-4-piperidinyl]-5-(3-{[(1-methylbutyl)amino]methyl}phenyl)-1H-indole-7-carboxamide trifluoroacetate] | ≤ 1.5 µM | ≤ 10 µM | –
18 | CCNCc1ccc(-c2cc(C(N)=O)c3[nH]cc(C4CCN(S(=O)(=O)CC)CC4)c3c2)s1 [Example 168, 5-{5-[(ethylamino)methyl]-2-thienyl}-3-[1-(ethylsulfonyl)-4-piperidinyl]-1H-indole-7-carboxamide] | ≤ 1.5 µM | ≤ 10 µM | –
19 | CCS(=O)(=O)N1CCC(c2c[nH]c3c(C(N)=O)cc(-c4cc(F)cc(CN[C@H](C)C(C)C)c4)cc23)CC1 [Example 315, 5-[3-({[(1R)-1,2-dimethylpropyl]amino}methyl)-5-fluorophenyl]-3-[1-(ethylsulfonyl)-4-piperidinyl]-1H-indole-7-carboxamide trifluoroacetate] | ≤ 1.5 µM | ≤ 10 µM | –
20 | CCS(=O)(=O)N1CCC(c2c[nH]c3c(C(N)=O)cc(-c4cc(CN5[C@H](C)CC[C@H]5C)cs4)cc23)CC1 [Example 216, 5-(4-{[(2R,5R)-2,5-dimethyl-1-pyrrolidinyl]methyl}-2-thienyl)-3-[1-(ethylsulfonyl)-4-piperidinyl]-1H-indole-7-carboxamide trifluoroacetate] | ≤ 1.5 µM | ≤ 10 µM | –
